Assay results as given in BigSolDB 2.1.

COc1c(O)cc2c(c1O)[C@@H]1O[C@H](CO)[C@@H](O)[C@H](O)[C@H]1OC2=O
solubility (mole fraction) (in DMSO, 298.15 K): 0.0168
solubility (mole fraction) (in DMSO, 303.15 K): 0.0182
solubility (mole fraction) (in DMSO, 308.15 K): 0.0198
solubility (mole fraction) (in DMSO, 313.15 K): 0.0212
solubility (mole fraction) (in DMSO, 318.15 K): 0.0229
solubility (mole fraction) (in water, 298.15 K): 7.5e-05
solubility (mole fraction) (in water, 303.15 K): 9.88e-05
solubility (mole fraction) (in water, 308.15 K): 0.000123
solubility (mole fraction) (in water, 313.15 K): 0.000151
solubility (mole fraction) (in water, 318.15 K): 0.000185
